Reference: patent US7771967B2, “Nucleic acid encoding apolipoprotein E-I3” (The J. David Gladstone Institutes, priority 2006, dated 2010)

Columns and labels:
apoE-I3 mRNA = assay: qRT-PCR of apoE-I3 in hippocampus and cortex of kainic acid-treated mice; format: in vivo, mouse; conditions: human apoE knock-in mice, n=3
Protocol: ApoE-I3 and apoE mRNA levels in different samples were determined in duplicate by quantitative fluorogenic reverse transcription-PCR (qRT-PCR) using GAPDH mRNA as an internal control. RT reactions were performed with Superscript First-strand Synthesis System Kits (Invitrogen, Carlsbad, Calif.) as described earlier. qRT-PCR reactions consisted of 10 μl of diluted cDNA reaction mixture (equivalent to 4.0 ng of RNA template), 12.5 μl of SYBR Green PCR master mix (Applied Biosystems), and 300 nM of each forward and backward primer in a final volume of 25 μl. Serial dilution of pooled cDNA samples from all cells or tissues were used to generate standard curves to determine the relative levels of specific mRNAs in individual samples. The apoE-I3 mRNA levels were then calculated and normalized to the internal GAPDH mRNA standards.
(§1) Kainic acid injections. Kainic acid crosses the blood-brain barrier and induces excitotoxic CNS injury, particularly in the hippocampus and neocortex. Wildtype and human apoE3 or apoE4 knock-in mice at 4-6 months of age were injected intraperitoneally with kainic acid (Sigma) dissolved in saline (0.9%) at 25 mg/kg body weight in one dose, as described. Within ˜15 min, all mice developed seizures. Seizure activity was assessed as described. […] Mice were killed 1-6 days after the injection of kainic acid.
Preparation of mouse brain tissues. […]

[1] = Kainic acid injection, seizure activity in mice; format: in vivo, mouse; conditions: 25 mg/kg intraperitoneally, wildtype and human apoE3 or apoE4 knock-in mice, all mice
Protocol: as §1

C=C(C)[C@H]1CN[C@H](C(=O)O)[C@H]1CC(=O)O [kainic acid, Kainic acid]
increase of apoE-I3 expression (qRT-PCR) (apoE-I3 mRNA; cortex): not in the cortex
increase of apoE-I3 expression (qRT-PCR) (apoE-I3 mRNA; hippocampus): twofold
time from injection to seizures [1]: ≤ 15 min
